The first test concerns A. brasiliensis. In words: Minimum Inhibitory Concentration (MIC) and Kull synergy index against A. brasiliensis. Type of test: cell-based. Set-up: unit not given here.
Settings: not given
From the text: To calculate the synergism between compounds of formula (I) and other antimicrobial actives, the Kull equation^1 2 was used SI=(Cmixture×PA)/CA+(Cmixture×PB)/CB (I) • where • SI is the Synergy Index according to Kull^1), 2) • CA is the […] for substance A • CB is the cell count for substance B • Cmixture is the cell count for the mixture of substances A and B • PA is the proportion of the substance A in the mixture • PB is the proportion of the substance B in the mixture. ^1 Kull, F. C., Eismann, P. C., Sylvestrowicz, H. D., and R. L. Mayer (1961). Mixtures of Quaternary Ammonium Compounds and Long-chain Fatty Acids as Antifungal Agents. Applied Microbiology 9, 538-541.^2 Steinberg, D. C. (2000). Measuring Synergy. Cosmetics & Toiletries 115 (11), 59-62.
Antimicrobil activity was evaluated by determining the Minimum Inhibitory Concentration (MIC) representing the lowest concentration of a chemical which prevents visible growth of a bacterium.
The MIC values were determined by preparing solutions of the chemical in vitro at increasing concentrations, incubating the solutions with the separate batches of cultured bacteria, and measuring the results using agar dilution or broth microdilution. Results have been graded into susceptible (often called sensitive), intermediate, or resistant to a particular antibiotic by using a cutoff point. Cut off points are agreed upon values, published in guidelines of a reference body, such as the U.S. Clinical and Laboratory Standards Institute (CLSI), the British Society for Antimicrobial Chemotherapy (BSAC) or the European Committee on Antimicrobial Susceptibility Testing (EUCAST).
Turning to `C/C=C/C=C/C(=O)[O-].[K+]` [Potassium sorbate], the “MIC (Comparison: MIC values for the actives taken alone)” value (from here on “MIC”) is 5000.

The same test, now with this note: active taken alone; A. brasiliensis.
Consider `OCCCO` [1,3-Propanediol], for which the “MIC” value was determined as 200.000.

For the compound `CC(=O)c1ccc(O)cc1` [4-Hydroxyacetophenone], the “MIC” value is 2500.

With `Cc1cc(O)ccc1C(C)C` [4-Isopropyl-3-methylphenol], the “MIC” value stood at 250.

As for `OCc1ccccc1` [Benzyl alcohol], the “MIC” value was 5000.

For the compound `O=[N+]([O-])C(Br)(CO)CO` [Bronopol, 2-bromo-2-nitro-1,3-propanediol], the “MIC” value is given as 2000.

For `CCCCCCCC(=O)NCC(=O)O` [Capryloyl glycine], the “MIC” value worked out at 60.000.

With `CC(C)(C)C(=O)C(Oc1ccc(Cl)cc1)n1ccnc1` (stereo not shown) [Climbazol, Crinipan, Climbazol], the “MIC” value was 64.

`CCCCCCCCCCCC(=O)N[C@@H](CCCN=C(N)N)C(=O)OCC.Cl` [Ethyl lauroyl arginate HCl]: the “MIC” value was found to be 2.000.

Regarding `O=C(O)CN(CCN(CC(=O)O)CC(=O)O)CC(=O)O` [Ethylene diamine tetra acetate (EDTA), Ethylene diamine tetra acetate], the “MIC” value stood at 40.000.

For the compound `CCCCCCCCCC(=O)OCC(O)CO` (stereo not shown) [Glyceryl caprate], the “MIC” value was determined as 2.000.

Regarding `CCCCNC(=O)OCC#CI` [IPBC, 3-Iodo-2-propynylbutylcarbamate, 3-Iodo-2-propynylbutylcarbamate], the “MIC” value turned out to be 1.

Turning to `Cc1cc(CC(C)CC(C)(C)C)n(O)c(=O)c1.NCCO` (stereo not shown) [Piroctone oleamine, Octopyrox, 1-hydroxy-4-methyl-6-(2,4,4-trimethylpentyl)-2-(1H)-pyridinone monoethanolamine salt], the “MIC” value is given as 64.

For `O=C([O-])c1ccccc1.[Na+]` [Sodium benzoate], the “MIC” value was determined as 10.000.

For `Oc1cc(Cl)ccc1Oc1ccc(Cl)cc1Cl` [Triclosan, 2,4,4′-trichloro-2′-hydroxy-diphenyl ether], the “MIC” value amounted to 32.

Turning to `C=CCCCCCCCCC(=O)NCC(=O)O` [Undecenoyl glycin], the “MIC” value came out at 5.000.

As to `C=CCCCCCCCCC(=O)O` [Undecylenic acid, Undec-10-enoic acid, Undec-10-enoic acid], the “MIC” value is recorded as 500.

For the compound Glceryl caprylate, the “MIC” value was 2.000.

For Sorbitan caprylate, the “MIC” value was 4000.

The subject of another test is mold growth on moist alfalfa hay.
Assay: not given
To be noted: preservation of moist alfalfa hay; cited from earlier work.
For `CC(=O)c1ccc(O)cc1` [4-Hydroxyacetophenone], the “prevention of mold growth” value is “not prevent mold growth”.

The next test has as its system subcutaneous inflammation.
Assay: not given
The following applies: administered intraperitoneally; cited from earlier work.
As to `CC(=O)c1ccc(O)cc1` [4-Hydroxyacetophenone], the “reduction of subcutaneous inflammation” value was “one of the active compounds reducing subcutaneous inflammation”.

Test system in the next test: not given
Assay: not given
The following applies: chemical in vitro assay; constituent of Tagetes mendocina; cited from earlier work.
With `CC(=O)c1ccc(O)cc1` [4-Hydroxyacetophenone], the antioxidant activity entry was “one of the active constituents”.

Values taken from patent US12193441B2, “Antimicrobial mixtures comprising at least one hydroxyphenone derivative” (SYMRISE AG, priority 2018, dated 2025).
